Laboratory results reported in patent US20110218103A1, “Fluoroalkyl-substituted 2-amidobenzimidazoles” (BAYER CROPSCIENCE AG, priority 2010, published 2011).

Columns and labels:
Zea mays (ZEAMX) = experiment: Cold stress test on crop plants, spray application in greenhouse, visual damage rating; assay type: in vivo; details: mean of three results
Procedure: Seeds of monocotyledonous and dicotyledonous crop plants were placed in sandy loam in wood-fiber pots, covered with soil and cultivated in a greenhouse under good growth conditions. The test plants were treated at the early leaf stage (BBCH10-BBCH13). To ensure uniform water supply before commencement of stress, the potted plants were supplied with the maximum amount of water immediately beforehand by dam irrigation and, after application, transferred in plastic inserts in order to prevent subsequent, excessively rapid drying. The inventive compounds, formulated in the form of wettable powders (WP), wettable granules (WG), suspension concentrates (SC) or emulsion concentrates (EC), were sprayed onto the green parts of the plants as an aqueous suspension at an equivalent water application rate of 600 l/ha with addition of 0.2% wetting agent (agrotin). Substance application was followed immediately by stress treatment of the plants (cold or drought stress). For cold stress treatment, the plants were kept under the following controlled conditions: “day”: 12 hours with illumination at 8° C. “night”: 12 hours without illumination at 1° C. The duration of the respective stress phases was guided mainly by the state of the untreated, stressed control plants and thus varies from crop to crop. It was ended (by re-irrigating or transfer to a greenhouse with good growth conditions) as soon as irreversible damage is observed on the untreated, stressed control plants. In the case of dicotyledonous crops, for example oilseed rape and soya, the duration of the drought stress phase was between 3 and 5 days, in the case of monocotyledonous crops, for example wheat, barley or corn, between 6 and 10 days. The duration of the cold stress phase varied between 12 and 14 days. The end of the stress phase was followed by an approx. 5-7-day recovery phase, during which the plants were once again kept under good growth conditions in a greenhouse. […] The intensity of damage was first assessed as a percentage (100%=plants have died, 0%=like control plants). […]

[1] = test system: Triticum aestivum (TRZAS); experiment: Drought stress test on crop plants, spray application in greenhouse, visual damage rating; assay type: in vivo; details: mean of three results
Procedure: Seeds of monocotyledonous and dicotyledonous crop plants were placed in sandy loam in wood-fiber pots, covered with soil and cultivated in a greenhouse under good growth conditions. The test plants were treated at the early leaf stage (BBCH10-BBCH13). To ensure uniform water supply before commencement of stress, the potted plants were supplied with the maximum amount of water immediately beforehand by dam irrigation and, after application, transferred in plastic inserts in order to prevent subsequent, excessively rapid drying. The inventive compounds, formulated in the form of wettable powders (WP), wettable granules (WG), suspension concentrates (SC) or emulsion concentrates (EC), were sprayed onto the green parts of the plants as an aqueous suspension at an equivalent water application rate of 600 l/ha with addition of 0.2% wetting agent (agrotin). Substance application was followed immediately by stress treatment of the plants (cold or drought stress). For cold stress treatment, the plants were kept under the following controlled conditions: Drought stress was induced by gradual drying out under the following conditions: “day”: 14 hours with illumination at 26° C. “night”: 10 hours without illumination at 18° C. The duration of the respective stress phases was guided mainly by the state of the untreated, stressed control plants and thus varies from crop to crop. It was ended (by re-irrigating or transfer to a greenhouse with good growth conditions) as soon as irreversible damage is observed on the untreated, stressed control plants. In the case of dicotyledonous crops, for example oilseed rape and soya, the duration of the drought stress phase was between 3 and 5 days, in the case of monocotyledonous crops, for example wheat, barley or corn, between 6 and 10 days. The duration of the cold stress phase varied between 12 and 14 days. The end of the stress phase was followed by an approx. 5-7-day recovery phase, during which the plants were once again kept under good growth conditions in a greenhouse. In order to rule out any influence of the effects observed by any fungicidal action of the test compounds, it was additionally ensured that the tests proceed without fungal infection and without infection pressure. After the recovery phase had ended, the intensities of damage were rated visually compared to untreated, unstressed controls of the same age (in the case of drought stress) or the same growth stage (in the case of cold stress). The intensity of damage was first assessed as a percentage (100%=plants have died, 0%=like control plants). These values were then used to calculate the efficacy of the test compounds (=percentage reduction in the intensity of damage as a result of substance application) by the following formula: [formula] EF: efficacy (%) DVus: damage value of the untreated, stressed control DVts: damage value of the plants treated with test compound The tables below list mean values in each case from three results of the same test. Effects of selected compounds of the formula (I) under drought stress: TRZAS=Triticum aestivum

Compound	EF (ZEAMX), efficacy = percentage reduction in the intensity of damage (Zea mays (ZEAMX); 5 g/ha) [%]	EF (TRZAS), efficacy = percentage reduction in the intensity of damage ([1]; 25 g/ha) [%]	EF (ZEAMX), efficacy = percentage reduction in the intensity of damage (Zea mays (ZEAMX); 25 g/ha) [%]	EF (TRZAS), efficacy = percentage reduction in the intensity of damage ([1]; 250 g/ha) [%]
NC(=O)c1cccc2[nH]c(C(F)(F)C(F)(F)F)nc12 [1-2, 2-(pentafluoroethyl)-1H-benzimidazole-4-carboxamide]	>5	>5	–	–
NC(=O)c1cccc2[nH]c(C(F)(F)C(F)(F)C(F)(F)F)nc12 [1-17]	–	–	>5	>5
